# Reference: ChEMBL document CHEMBL1136921, “Benzylguanidines and other galegine analogues inducing weight loss in mice” (J Med Chem, 2009)
# Experiments:
# Mus musculus [1] = experiment: Toxicity in lean normal BALB/c mouse assessed as overt signs of behavioural changes at equimolar dose of 0.5 mmol/kg galegine administered daily through diet for 7 days; assay type: organism-based; conditions: in vivo, po, 168 h
# Mus musculus [2] = experiment: Antiobesity activity in lean normal BALB/c mouse assessed as change in average daily weight at 0.51 mmol/kg/day administered through diet for 7 days relative to time-matched control; assay type: functional
# Mus musculus [3] = experiment: Hypoglycemic activity in lean normal BALB/c mouse assessed as blood glucose level at 0.51 mmol/kg/day administered through diet for 7 days relative to time-matched control; assay type: functional
# Mus musculus [4] = experiment: Antiobesity activity in lean normal BALB/c mouse assessed as change in average daily food intake at 0.51 mmol/kg/day administered through diet for 7 days relative to time-matched control; assay type: functional
# Mus musculus [5] = experiment: Hypoglycemic activity in lean normal BALB/c mouse assessed as blood glucose level at 0.59 mmol/kg/day administered through diet for 7 days relative to time-matched control; assay type: functional
# Mus musculus [6] = experiment: Antiobesity activity in ob/ob mouse model assessed as change in average daily food intake at 0.24 mmol/kg/day administered through diet for 28 days relative to time-matched control; assay type: functional
# Mus musculus [7] = experiment: Hypoglycemic activity in high fat diet-induced obese BALB/c mouse model assessed as blood glucose level at 0.42 mmol/kg/day administered through diet for 28 days relative to time-matched control; assay type: functional
# Mus musculus [8] = experiment: Antiobesity activity in high fat diet-induced obese BALB/c mouse model assessed as change in average daily food intake at 0.42 mmol/kg/day administered through diet for 28 days relative to time-matched control; assay type: functional
# Mus musculus [9] = experiment: Hypoglycemic activity in ob/ob mouse model assessed as blood glucose level at 0.24 mmol/kg/day administered through diet for 28 days relative to time-matched control; assay type: functional
# Mus musculus [10] = experiment: Antiobesity activity in lean normal BALB/c mouse assessed as change in average daily weight at 0.59 mmol/kg/day administered through diet for 7 days relative to time-matched control; assay type: functional
# Mus musculus [11] = experiment: Antiobesity activity in ob/ob mouse model assessed as change in average daily weight at 0.24 mmol/kg/day administered through diet for 28 days relative to time-matched control; assay type: functional
# Mus musculus [12] = experiment: Antiobesity activity in lean normal BALB/c mouse assessed as change in average daily food intake at 0.59 mmol/kg/day administered through diet for 7 days relative to time-matched control; assay type: functional
# Mus musculus [13] = experiment: Antiobesity activity in high fat diet-induced obese BALB/c mouse model assessed as change in average daily body weight at 0.42 mmol/kg/day administered through diet for 28 days relative to time-matched control; assay type: functional
# Mus musculus [14] = experiment: Antiobesity activity in lean normal BALB/c mouse assessed as change in average daily weight at 0.62 mmol/kg/day administered through diet for 7 days relative to time-matched control; assay type: functional
# Mus musculus [15] = experiment: Antiobesity activity in high fat diet-induced obese BALB/c mouse model assessed as change in average daily body weight at 0.45 mmol/kg/day administered through diet for 28 days relative to time-matched control; assay type: functional
# Mus musculus [16] = experiment: Antiobesity activity in lean normal BALB/c mouse assessed as change in average daily food intake at 0.62 mmol/kg/day administered through diet for 7 days relative to time-matched control; assay type: functional
# Mus musculus [17] = experiment: Hypoglycemic activity in high fat diet-induced obese BALB/c mouse model assessed as blood glucose level at 0.45 mmol/kg/day administered through diet for 28 days relative to time-matched control; assay type: functional
# Mus musculus [18] = experiment: Hypoglycemic activity in ob/ob mouse model assessed as blood glucose level at 0.27 mmol/kg/day administered through diet for 28 days relative to time-matched control; assay type: functional
# Mus musculus [19] = experiment: Antiobesity activity in high fat diet-induced obese BALB/c mouse model assessed as change in average daily food intake at 0.45 mmol/kg/day administered through diet for 28 days relative to time-matched control; assay type: functional
# Mus musculus [20] = experiment: Hypoglycemic activity in lean normal BALB/c mouse assessed as blood glucose level at 0.62 mmol/kg/day administered through diet for 7 days relative to time-matched control; assay type: functional
# Mus musculus [21] = experiment: Antiobesity activity in ob/ob mouse model assessed as change in average daily weight at 0.27 mmol/kg/day administered through diet for 28 days relative to time-matched control; assay type: functional
# Mus musculus [22] = experiment: Antiobesity activity in ob/ob mouse model assessed as change in average daily food intake at 0.27 mmol/kg/day administered through diet for 28 days relative to time-matched control; assay type: functional
# Mus musculus [23] = experiment: Antiobesity activity in lean normal BALB/c mouse assessed as change in average daily food intake at 0.72 mmol/kg/day administered through diet for 7 days relative to time-matched control; assay type: functional
# [24] = Metabolic stability in ob/ob mouse liver microsomes assessed as oxidative hydroxylation at 50 uM after 45 mins by HPLC-MS analysis; assay type: ADME, Microsome; conditions: 0.75 h
# Mus musculus [25] = experiment: Antiobesity activity in lean normal BALB/c mouse assessed as change in average daily weight at 0.72 mmol/kg/day administered through diet for 7 days relative to time-matched control; assay type: functional
# Mus musculus [26] = experiment: Hypoglycemic activity in lean normal BALB/c mouse assessed as blood glucose level at 0.72 mmol/kg/day administered through diet for 7 days relative to time-matched control; assay type: functional
# Mus musculus [27] = experiment: Antiobesity activity in lean normal BALB/c mouse assessed as change in average daily weight at 0.60 mmol/kg/day administered through diet for 7 days relative to time-matched control; assay type: functional
# Mus musculus [28] = experiment: Antiobesity activity in lean normal BALB/c mouse assessed as change in average daily food intake at 0.60 mmol/kg/day administered through diet for 7 days relative to time-matched control; assay type: functional
# Mus musculus [29] = experiment: Antiobesity activity in lean normal BALB/c mouse assessed as change in average daily food intake at 0.40 mmol/kg/day administered through diet for 7 days relative to time-matched control; assay type: functional
# Mus musculus [30] = experiment: Antiobesity activity in lean normal BALB/c mouse assessed as change in average daily weight at 0.40 mmol/kg/day administered through diet for 7 days relative to time-matched control; assay type: functional
# Mus musculus [31] = experiment: Hypoglycemic activity in lean normal BALB/c mouse assessed as blood glucose level at 0.40 mmol/kg/day administered through diet for 7 days relative to time-matched control; assay type: functional
compound,measurement,setting,value
N=C(N)NCc1ccccc1Br,Activity,Mus musculus [1],Non-toxic
same,Activity,Mus musculus [2],-6%
same,Activity,Mus musculus [3],84%
same,Activity,Mus musculus [4],-17.7%
N=C(N)NCc1ccc(Cl)cc1,Activity,Mus musculus [5],59%
same,Activity,Mus musculus [6],-38.5%
same,Activity,Mus musculus [7],94%
same,Activity,Mus musculus [8],-15.6%
same,Activity,Mus musculus [9],71%
same,Activity,Mus musculus [1],Non-toxic
same,Activity,Mus musculus [10],-19.7%
same,Activity,Mus musculus [11],-11%
same,Activity,Mus musculus [12],-34.7%
same,Activity,Mus musculus [13],-7.3%
N=C(N)NCc1ccc(F)cc1,Activity,Mus musculus [14],-14.7%
same,Activity,Mus musculus [15],-7.8%
same,Activity,Mus musculus [16],-27.8%
same,Activity,Mus musculus [17],93%
same,Activity,Mus musculus [1],Non-toxic
same,Activity,Mus musculus [18],102%
same,Activity,Mus musculus [19],-9.8%
same,Activity,Mus musculus [20],56%
same,Activity,Mus musculus [21],-8.7%
same,Activity,Mus musculus [22],-26.8%
N=C(N)NCc1cccs1,Activity,Mus musculus [23],5.6%
same,Activity,[24],Stable
same,Activity,Mus musculus [1],Non-toxic
same,Activity,Mus musculus [25],-2.3%
same,Activity,Mus musculus [26],88%
NC(N)=NCc1ccc2c(c1)OCO2,Activity,Mus musculus [27],-2%
same,Activity,Mus musculus [1],Non-toxic
same,Activity,Mus musculus [28],-18%
N=C(N)NCc1ccc(Cl)c(Cl)c1,Activity,Mus musculus [29],-38.3%
same,Activity,Mus musculus [30],-9.9%
same,Activity,Mus musculus [1],Non-toxic
same,Activity,Mus musculus [31],67%
[H]/N=C(/N)N/C(=N/[H])NCCc1ccccc1 [PHENFORMIN],Activity,Mus musculus [14],-0.14%
same,Activity,Mus musculus [16],-3.4%
same,Activity,[24],Unstable
same,Activity,Mus musculus [1],Non-toxic
